# Assay results published in ChEMBL document CHEMBL1201862, “PubChem BioAssay data set” (2004).
# Active and inactive are the calls of the source.
# What was measured:
# [1] = biological target: Photoreceptor-specific nuclear receptor (Homo sapiens, UniProt Q9Y5X4); assay type: functional;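 also: potency for compounds that break the NR2E3 corepressor complex and count as activators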
# [2] = biological target: Peroxisome proliferator-activated receptor gamma/Nuclear receptor coactivator 1 (Homo sapiens, UniProt P37231); experiment: (§1) TR-FRET dose response biochemical High Throughput Screening assay for agonists of the steroid receptor coactivator 1 (SRC-1) recruitment by the peroxisome proliferator-activated receptor gamma (PPAR gamma): non-selective agonists. [Related pubchem assays (depositor defined):AID1300, AID1808, AID504735, AID631]; assay type: protein assay
# [3] = biological target: Peroxisome proliferator-activated receptor gamma/Nuclear receptor coactivator 3 (Homo sapiens, UniProt P37231); experiment: as §1, with “3 (SRC-3)” for “1 (SRC-1)”, “assays: 1301 (Confirmation screen.), 1048 (Primary screen.)]” for “assays (depositor defined):AID1300, AID1808, AID504735, AID631]”; assay type: functional
# Peroxisome proliferator-activated receptor gamma/Nuclear receptor coactivator 3, sequence (P37231 whole entry): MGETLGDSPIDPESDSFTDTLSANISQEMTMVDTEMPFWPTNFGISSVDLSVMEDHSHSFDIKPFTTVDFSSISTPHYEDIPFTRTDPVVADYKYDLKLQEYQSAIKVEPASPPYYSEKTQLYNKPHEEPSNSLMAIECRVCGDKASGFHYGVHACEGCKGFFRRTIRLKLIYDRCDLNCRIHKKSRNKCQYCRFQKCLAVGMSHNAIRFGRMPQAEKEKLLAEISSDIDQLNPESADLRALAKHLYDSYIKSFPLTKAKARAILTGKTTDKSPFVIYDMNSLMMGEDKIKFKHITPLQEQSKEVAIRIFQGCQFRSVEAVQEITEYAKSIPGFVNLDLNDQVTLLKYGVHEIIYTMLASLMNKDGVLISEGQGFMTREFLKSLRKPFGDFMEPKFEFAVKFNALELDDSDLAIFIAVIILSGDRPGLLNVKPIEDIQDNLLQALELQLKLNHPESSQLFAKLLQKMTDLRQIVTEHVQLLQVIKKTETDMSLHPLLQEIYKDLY
# Peroxisome proliferator-activated receptor gamma/Nuclear receptor coactivator 3, sequence (Q9Y6Q9 whole entry, further chain): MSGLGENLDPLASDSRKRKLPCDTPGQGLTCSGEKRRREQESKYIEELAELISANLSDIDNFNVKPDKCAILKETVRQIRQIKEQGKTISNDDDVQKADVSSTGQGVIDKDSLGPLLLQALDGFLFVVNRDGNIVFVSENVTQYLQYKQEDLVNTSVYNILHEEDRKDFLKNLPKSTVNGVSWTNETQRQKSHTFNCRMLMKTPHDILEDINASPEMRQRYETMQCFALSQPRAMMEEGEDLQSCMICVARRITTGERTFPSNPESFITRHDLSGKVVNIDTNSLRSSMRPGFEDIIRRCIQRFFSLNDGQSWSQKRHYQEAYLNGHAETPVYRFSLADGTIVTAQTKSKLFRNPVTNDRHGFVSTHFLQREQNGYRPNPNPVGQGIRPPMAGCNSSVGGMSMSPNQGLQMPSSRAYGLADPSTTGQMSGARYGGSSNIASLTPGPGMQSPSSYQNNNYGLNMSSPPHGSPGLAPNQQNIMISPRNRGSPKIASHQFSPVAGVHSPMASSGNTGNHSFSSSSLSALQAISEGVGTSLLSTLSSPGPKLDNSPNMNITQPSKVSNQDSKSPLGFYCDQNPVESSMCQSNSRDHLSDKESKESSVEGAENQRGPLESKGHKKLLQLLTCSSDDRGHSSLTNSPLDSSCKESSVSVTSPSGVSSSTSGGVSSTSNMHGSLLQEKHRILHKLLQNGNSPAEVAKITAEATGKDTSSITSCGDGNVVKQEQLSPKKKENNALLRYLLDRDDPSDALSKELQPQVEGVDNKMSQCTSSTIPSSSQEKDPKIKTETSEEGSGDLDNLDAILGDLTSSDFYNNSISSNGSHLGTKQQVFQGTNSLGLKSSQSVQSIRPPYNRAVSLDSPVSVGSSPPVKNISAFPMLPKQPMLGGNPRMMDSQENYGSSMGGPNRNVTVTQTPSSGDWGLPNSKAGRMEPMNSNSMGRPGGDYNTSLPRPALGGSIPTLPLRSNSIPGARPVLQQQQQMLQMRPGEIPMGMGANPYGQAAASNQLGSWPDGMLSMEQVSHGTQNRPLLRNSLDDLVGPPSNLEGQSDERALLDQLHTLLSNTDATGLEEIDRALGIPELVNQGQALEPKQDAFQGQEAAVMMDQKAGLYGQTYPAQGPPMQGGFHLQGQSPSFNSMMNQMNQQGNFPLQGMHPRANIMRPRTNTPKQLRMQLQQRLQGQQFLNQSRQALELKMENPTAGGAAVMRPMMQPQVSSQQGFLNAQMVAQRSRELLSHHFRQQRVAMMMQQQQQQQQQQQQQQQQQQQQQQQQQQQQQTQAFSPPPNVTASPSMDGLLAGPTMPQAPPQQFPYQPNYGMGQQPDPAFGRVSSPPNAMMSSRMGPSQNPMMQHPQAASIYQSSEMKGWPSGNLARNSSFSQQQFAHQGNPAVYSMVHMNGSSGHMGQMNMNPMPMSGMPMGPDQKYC
# [4] = biological target: Peroxisome proliferator-activated receptor gamma/Nuclear receptor coactivator 2 (Homo sapiens, UniProt P37231); experiment: TR-FRET dose response biochemical High Throughput Screening assay for agonists of the steroid receptor coactivator 2 (SRC-2) recruitment by the peroxisome proliferator-activated receptor gamma (PPAR gamma): non-selective agonists. [Related pubchem assays: 1297, 1032 ]; assay type: functional
# Peroxisome proliferator-activated receptor gamma/Nuclear receptor coactivator 2, sequence (P37231 whole entry): as the sequence (P37231 whole entry) above
# Peroxisome proliferator-activated receptor gamma/Nuclear receptor coactivator 2, sequence (Q15596 whole entry, further chain): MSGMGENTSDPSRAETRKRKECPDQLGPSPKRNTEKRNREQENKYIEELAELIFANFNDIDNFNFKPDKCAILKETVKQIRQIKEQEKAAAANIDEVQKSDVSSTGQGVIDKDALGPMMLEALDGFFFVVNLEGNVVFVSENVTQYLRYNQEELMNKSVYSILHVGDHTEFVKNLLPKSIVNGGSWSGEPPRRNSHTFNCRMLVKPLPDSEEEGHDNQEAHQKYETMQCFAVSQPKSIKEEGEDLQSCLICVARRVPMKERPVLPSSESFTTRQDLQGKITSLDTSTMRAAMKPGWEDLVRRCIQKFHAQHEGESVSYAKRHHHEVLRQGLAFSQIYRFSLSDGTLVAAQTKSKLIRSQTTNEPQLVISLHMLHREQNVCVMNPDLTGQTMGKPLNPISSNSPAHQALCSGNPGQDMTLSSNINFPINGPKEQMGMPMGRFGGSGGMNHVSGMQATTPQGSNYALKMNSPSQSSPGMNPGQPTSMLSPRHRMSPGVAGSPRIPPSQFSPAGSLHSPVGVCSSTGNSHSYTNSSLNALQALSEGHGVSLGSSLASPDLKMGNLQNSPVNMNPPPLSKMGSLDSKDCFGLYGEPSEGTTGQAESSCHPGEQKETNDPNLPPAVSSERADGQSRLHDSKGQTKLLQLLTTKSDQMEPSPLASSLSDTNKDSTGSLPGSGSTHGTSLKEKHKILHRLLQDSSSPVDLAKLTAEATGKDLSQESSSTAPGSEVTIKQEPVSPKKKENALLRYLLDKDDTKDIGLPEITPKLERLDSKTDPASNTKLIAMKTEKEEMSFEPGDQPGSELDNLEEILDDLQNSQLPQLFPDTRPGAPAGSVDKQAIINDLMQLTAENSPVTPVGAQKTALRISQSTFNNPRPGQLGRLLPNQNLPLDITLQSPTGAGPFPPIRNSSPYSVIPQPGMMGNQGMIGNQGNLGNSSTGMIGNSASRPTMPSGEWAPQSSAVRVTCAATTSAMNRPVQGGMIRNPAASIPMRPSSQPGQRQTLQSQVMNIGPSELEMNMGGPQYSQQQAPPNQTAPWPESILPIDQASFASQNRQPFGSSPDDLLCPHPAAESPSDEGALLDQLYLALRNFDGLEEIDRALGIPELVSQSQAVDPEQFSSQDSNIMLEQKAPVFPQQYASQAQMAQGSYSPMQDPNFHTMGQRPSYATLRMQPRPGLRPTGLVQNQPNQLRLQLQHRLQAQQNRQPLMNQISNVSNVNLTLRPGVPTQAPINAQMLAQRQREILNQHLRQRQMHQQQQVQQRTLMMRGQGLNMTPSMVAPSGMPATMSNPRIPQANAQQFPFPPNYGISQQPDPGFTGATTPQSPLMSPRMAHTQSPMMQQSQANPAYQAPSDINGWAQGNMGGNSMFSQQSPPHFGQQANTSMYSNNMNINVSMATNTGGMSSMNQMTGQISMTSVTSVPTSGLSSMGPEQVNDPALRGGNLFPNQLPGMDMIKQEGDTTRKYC
# [5] = biological target: Peroxisome proliferator-activated receptor gamma/Nuclear receptor corepressor 2 (Homo sapiens, UniProt P37231+Q9Y618); assay type: functional
# [6] = Counterscreen for IDE inhibitors: Luminescence-based cell-based high throughput dose response assay to identify compounds that are cytotoxic to HEK cells. [Related pubchem assays: 434962 (Primary screen (IDE inhibitors in singlicate)), 449730 (Counterscreen (Cytotoxicity in triplicate)), 435028 (Confirmation (IDE inhibitors in triplicate)) …; assay type: functional; conditions: HEK293
# Insulin-degrading enzyme = biological target: T1, Insulin-degrading enzyme (Homo sapiens, UniProt P14735); experiment: Dose Response: Fluorescence polarization-based cell-based high throughput dose response assay for inhibitors of insulin-degrading enzyme (IDE). [Related pubchem assays: 434962 (Primary screen (IDE inhibitors in singlicate)), 449730 (Counterscreen (Cytotoxicity in triplicate)), 435028 (Confirmation (IDE inhibitors in triplicate)), 434984 (Summary …; assay type: functional
# T1 sequence (P14735 whole entry): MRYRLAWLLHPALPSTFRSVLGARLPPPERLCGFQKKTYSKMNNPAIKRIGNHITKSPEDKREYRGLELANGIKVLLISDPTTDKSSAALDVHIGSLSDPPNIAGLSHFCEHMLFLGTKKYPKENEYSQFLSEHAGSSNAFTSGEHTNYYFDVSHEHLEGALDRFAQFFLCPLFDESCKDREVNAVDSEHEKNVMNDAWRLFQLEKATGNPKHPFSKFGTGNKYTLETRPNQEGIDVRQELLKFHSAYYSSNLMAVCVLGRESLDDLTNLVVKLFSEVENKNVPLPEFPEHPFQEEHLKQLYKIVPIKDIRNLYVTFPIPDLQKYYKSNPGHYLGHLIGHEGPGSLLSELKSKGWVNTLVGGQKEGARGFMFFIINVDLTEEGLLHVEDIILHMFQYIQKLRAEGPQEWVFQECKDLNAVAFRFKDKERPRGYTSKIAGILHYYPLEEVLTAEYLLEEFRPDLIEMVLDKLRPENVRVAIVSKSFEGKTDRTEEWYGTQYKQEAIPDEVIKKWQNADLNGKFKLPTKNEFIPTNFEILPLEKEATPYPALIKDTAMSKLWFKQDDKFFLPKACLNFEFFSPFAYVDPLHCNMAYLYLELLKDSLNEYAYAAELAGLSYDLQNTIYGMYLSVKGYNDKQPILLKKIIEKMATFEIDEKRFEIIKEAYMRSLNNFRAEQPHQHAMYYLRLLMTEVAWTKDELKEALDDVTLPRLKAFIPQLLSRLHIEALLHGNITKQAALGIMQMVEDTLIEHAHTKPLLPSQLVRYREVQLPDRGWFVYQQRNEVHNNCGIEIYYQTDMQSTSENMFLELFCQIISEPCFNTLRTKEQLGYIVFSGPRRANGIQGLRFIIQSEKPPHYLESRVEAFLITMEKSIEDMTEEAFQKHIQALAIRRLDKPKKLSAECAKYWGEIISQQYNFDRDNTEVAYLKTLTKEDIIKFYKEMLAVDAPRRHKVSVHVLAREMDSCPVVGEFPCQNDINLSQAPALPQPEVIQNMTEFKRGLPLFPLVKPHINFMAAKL
# [7] = biological target: 26S proteasome non-ATPase regulatory subunit 14 (Homo sapiens, UniProt O00487); experiment: inhibition of proteasome subunit RPN11 – biochemical, fluorescence polarization, uHTS hits, confirmation (AID 602368); assay type: functional
# 26S proteasome non-ATPase regulatory subunit 14, sequence (O00487 whole entry): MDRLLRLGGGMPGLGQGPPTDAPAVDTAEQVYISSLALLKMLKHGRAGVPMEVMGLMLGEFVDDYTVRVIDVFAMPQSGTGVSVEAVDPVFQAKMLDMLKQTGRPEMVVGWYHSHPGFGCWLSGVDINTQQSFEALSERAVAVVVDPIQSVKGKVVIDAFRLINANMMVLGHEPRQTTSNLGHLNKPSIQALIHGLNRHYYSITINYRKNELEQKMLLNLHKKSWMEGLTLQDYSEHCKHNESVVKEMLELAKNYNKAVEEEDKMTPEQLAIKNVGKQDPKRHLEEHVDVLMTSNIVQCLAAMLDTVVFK
# [8] = biological target: 72 kDa type IV collagenase (Homo sapiens, UniProt P08253); experiment: Dose Response validation of uHTS RPN11 inhibitor hits using a MMP-2 Fluorescence assay.; assay type: functional
# Prothrombin = Prothrombin (Bos taurus, UniProt P00735); experiment: thrombin protease inhibitors – biochemical, fluorescence polarization, uHTS hits, dose response (AID 602369); assay type: functional
# [9] = biological target: Heat shock cognate 71 kDa protein (Homo sapiens, UniProt P11142); experiment: In Vitro Hsc70 Dose Response Fluorescence Polarization Assay. [Related pubchem assays: 1072 ]
# [10] = biological target: Heat shock 70 kDa protein 1A (Homo sapiens, UniProt P0DMV8); experiment: inhibition of Hsp70 binding activity – biochemical, fluorescence polarization, SAR follow-up (AID 1072)
# Heat shock 70 kDa protein 1A, sequence (P0DMV8 whole entry): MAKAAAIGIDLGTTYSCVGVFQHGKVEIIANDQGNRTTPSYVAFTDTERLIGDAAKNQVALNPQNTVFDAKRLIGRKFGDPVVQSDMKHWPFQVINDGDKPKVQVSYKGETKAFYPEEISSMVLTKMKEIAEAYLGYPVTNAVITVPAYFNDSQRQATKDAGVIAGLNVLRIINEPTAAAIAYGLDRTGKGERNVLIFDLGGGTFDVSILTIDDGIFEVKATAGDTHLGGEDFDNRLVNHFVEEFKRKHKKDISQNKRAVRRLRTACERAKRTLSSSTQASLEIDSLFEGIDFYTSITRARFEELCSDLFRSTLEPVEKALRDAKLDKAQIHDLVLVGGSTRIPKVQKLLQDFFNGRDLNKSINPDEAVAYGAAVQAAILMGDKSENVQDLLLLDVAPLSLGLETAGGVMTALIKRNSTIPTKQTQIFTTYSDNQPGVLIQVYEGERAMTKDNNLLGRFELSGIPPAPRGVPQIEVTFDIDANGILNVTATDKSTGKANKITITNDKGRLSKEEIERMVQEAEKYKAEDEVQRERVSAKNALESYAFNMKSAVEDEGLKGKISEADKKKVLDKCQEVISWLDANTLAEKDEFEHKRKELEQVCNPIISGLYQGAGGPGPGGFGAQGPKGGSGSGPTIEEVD
smiles,measurement,setting,value
COC(=O)c1cc(Br)c(=O)n(-c2nccs2)c1,IC50,[1],> 39.8 µM (not active)
same,EC50,[2],> 79.4 µM (inactive)
same,EC50,[3],> 79.4 µM (not active)
same,EC50,[4],> 79.4 µM (not active)
same,IC50,[5],6.29 µM (active)
COc1ccc(/N=C\c2oc3ccc4ccccc4c3c2O)cc1,IC50,[6],> 55.7 µM (not active)
same,IC50,Insulin-degrading enzyme,> 55.9 µM (not active)
same,IC50,[7],10 µM (active)
same,IC50,[8],> 100 µM (inactive)
same,IC50,Prothrombin,3.81 µM (active)
O=C(O)CCc1c2ccc(=O)c(O)c-2oc2c(O)c(O)ccc12,IC50,[9],3.98 µM (active)
same,IC50,[10],0.578 µM (active)
